Experimental findings from publication PMC11286754 (Nature Communications, 2024) are described below.

The structures appear in SMILES notation.

The target of assay [1] is T1, SMTA (transaminase from Shimia marina) (Shimia marina, UniProt A0A0P1EM06). It counts as binding.
In assay [2] the target is T1, SMTA (transaminase from Shimia marina). It counts as binding. This is another data set of the same source.

T1 sequence (A0A0P1EM06 1-462 limits assumed): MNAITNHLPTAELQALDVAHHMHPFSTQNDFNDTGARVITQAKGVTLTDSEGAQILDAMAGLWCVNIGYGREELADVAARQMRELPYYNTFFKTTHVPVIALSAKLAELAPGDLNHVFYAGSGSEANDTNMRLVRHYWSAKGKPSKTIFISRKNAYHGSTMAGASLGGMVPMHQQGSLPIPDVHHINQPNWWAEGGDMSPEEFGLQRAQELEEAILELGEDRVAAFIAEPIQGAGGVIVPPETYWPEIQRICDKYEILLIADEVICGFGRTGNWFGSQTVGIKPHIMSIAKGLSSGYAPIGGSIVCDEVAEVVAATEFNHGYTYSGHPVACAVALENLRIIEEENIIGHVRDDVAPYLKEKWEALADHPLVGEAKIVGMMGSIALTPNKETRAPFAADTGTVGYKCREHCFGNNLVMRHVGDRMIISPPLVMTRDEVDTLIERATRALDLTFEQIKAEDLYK

`Cc1ncc(COP(=O)(O)O)c(C=O)c1O` [PLP, pyridoxal-5′-phosphate]: the “X-ray crystal structure, 2.14 A” value in assay [1] is “The apparent electron density indicated a Schiff base between PLP and the catalytic lysine K291”.
Consider `Cc1ncc(COP(=O)(O)O)c(CN)c1O` [PMP], for which the cofactor release assay entry in assay [2] is “binding affinity of both PLP and PMP compared to that of wild-type SMTA”.
